Test results taken from patent US12527849B2, “Apparatus for determining administration form of a composition of an engineered virus-based nanoparticle for a treatment of an autoimmune condition” (Diamante Srl, priority 2021, dated 2026).

System: NOD mice
Test: Diabetes-free survival of NOD mice (Kaplan-Meier analysis, log-rank test)
Format: in vivo
Settings: two i.p. treatments, 2 weeks between doses, 50 μg per mouse
From the text: With continued reference to FIG. 1, as another non-limiting example, administration 116 of composition of the engineered virus-based nanoparticle for a treatment of an autoimmune disease may be done to nonobese diabetic (NOD) mice. In another non-limiting example, administration 116 of composition of the engineered virus-based nanoparticle for a treatment of an autoimmune disease may be done to any animal disclosed in this disclosure, such as but not limited to a human. Four-week-old female NOD mice may be obtained from Charles River Laboratories and may be housed under specific pathogen-free conditions in the animal facility at the University of Perugia, with ad libitum access to water and food. NOD mice may be randomly subdivided into four groups. In group 1 (n=18), CPMV·p524opt [50 μg per mouse, resuspended in 100 μl of phosphate-buffered saline (PBS)] may be injected twice intraperitoneally, with 2 weeks between doses. […] Mice may be monitored for the appearance of clinical signs of diabetes and may be euthanized when the disease was confirmed by glucosuria. […]
With continued reference to FIG. 1, in some embodiments, processor 104 may determine critical administration 124 as a function of a statistical comparison between administration groups 132. […] As a non-limiting example, a Kaplan-Meier analysis may be calculated using the following formula: […]

With “p524opt: p524 sequence adjusted to a pI of 8.59 (SEQ ID NO. 2), synthetic peptide given with IFA (DSRLSKVAPVIKARMMED)” the “protection from the onset of diabetes (in words)” value was “no protective effect”.
